Several values for one entry are separate records, joined by “and”; a condition that tells them apart may be missing. Equal entries are not always repeated. Where two headings read alike, the source gives them in different places.
Legend:
[1] = tested on: Junin virus (Candid #1 strain); assay type: cell-based
in vitro = settings: African green monkey
[2] = tested on: proliferating, uninfected Vero 76 cells
[3] = tested on: Chikungunya virus (S27 strain); assay: microbe, parasite or virus in culture; assay type: cell-based; settings: for EC50: Chikungunya virus, Vero 76, read-out: EC50 (mean 50% effective, virus-inhibitory concentration ± SD)
[4] = tested on: Dengue virus Type 2 (New Guinea C strain); assay: microbe, parasite or virus in culture; assay type: cell-based; settings: for EC50: Dengue virus, Vero 76, read-out: EC50 (mean 50% effective, virus-inhibitory concentration ± SD)

Structure (SMILES) | Inhibition of Junin virus (in words) [1] | SI (Selectivity Index, CC50/EC50) [1] | CC50 (in vitro; CC50 with ALB-F) | CC50 (in vitro; CC50 with all other dyes including ALB-A) | Mean 50% cytotoxic concentration ± SD, Neutral Red ([2]; African green monkey) | Mean 50% cytotoxic concentration ± SD, Viral ToxGlo ([2]; African green monkey) | Inhibition of chikungunya virus (in words) [3] | SI (Selectivity Index, CC50/EC50) [3] | EC50 [3] | SI (Selectivity Index, CC50/EC50) [4] | EC50 [4] | CC50 (in vitro; CC50 (toxicity) with ALB-A and ALB-F) | CC50 (in vitro; CC50 (toxicity) with NR, VTG, and WST-1) | Mean 50% cytotoxic concentration ± SD, ALB-Abs ([2]; 4 days, N=3) | Mean 50% cytotoxic concentration ± SD, ALB-Fluor ([2]; 4 days, N=3) | Mean 50% cytotoxic concentration ± SD, Neutral Red ([2]; 4 days, N=3) | Mean 50% cytotoxic concentration ± SD, Viral ToxGlo ([2]; 4 days, N=3) | Mean 50% cytotoxic concentration ± SD, WST-1 ([2]; 4 days, N=3) | Inhibition of dengue virus (in words) [4] | CC50 (in vitro; CC50, range over the dyes)
Nc1cc2nc[nH]c2c(=O)[nH]1 [3-Deazaguanine] | inhibited | >63 | 83 to 93 µM | 2.4 to 7 µM | 3.0 ± 1.1 µM | 1.5 ± 0.7 µM | inhibited | >8 | 13 ± 8.3 µM | >22 | 4.6 ± 6.3 µM |  |  |  |  |  |  |  |  | 
O=c1cnn([C@@H]2O[C@H](CO)[C@@H](O)[C@H]2O)c(=O)[nH]1 [6-Azauridine] | inhibited | >151 |  |  |  |  | inhibited | >13 | 8 ± 10.4 µM | >12 | 8.4 ± 10.8 µM | 48 to 92 µM | 6.1 to 17.5 µM | 48.0 ± 11.5 µM and 48.0 ± 19.9 µM | 69.0 ± 10.5 μM and 94.0 ± 10.4 ^*^, ^φ μM | 6.2 ± 0.9 µM | 17.0 ± 5.3 µM | 6.2 ± 1.0 μM and 7.1 ± 1.8 ^b μM |  | 
Nc1ncnc2c([C@@H]3N[C@H](CO)[C@@H](O)[C@H]3O)c[nH]c12 [BCX4430] |  |  |  |  |  |  |  |  | > 100 µM | >3 | 37 ± 22 µM |  |  |  |  |  |  |  | weak dengue-inhibitory activity | 
C#Cc1c(C(N)=O)ncn1[C@@H]1O[C@H](CO)[C@@H](O)[C@H]1O [EICAR, 5-ethynyl-1-beta-D-ribofuranosylimidazole-4-carboxamide] | inhibited | >52 |  |  |  |  | inhibited | >10 | 10.3 ± 13 µM | >8 | 13.3 ± 22.1 µM |  |  | 4.9 ± 1.4 µM and 3.9 ± 1.3 µM | 9.5 ± 4.2 µM and 8.2 ± 2.2 µM | 2.9 ± 1.0 µM | 2.7 ± 1.4 µM | 2.8 ± 1.1 µM and 3.9 ± 1.3 µM |  | 1.5 to 8.9 µM
NC(=O)c1nc(F)c[nH]c1=O [Favipiravir] | inhibited | >23 |  |  |  |  |  |  | > 100 µM |  | > 100 µM |  |  |  |  |  |  |  |  | 
COc1c(C)c2c(c(O)c1C/C=C(\C)CCC(=O)O)C(=O)OC2 [Mycophenolic acid, mycophenolic acid] | inhibited | >100 |  |  |  |  | inhibited | >61 | 1.6 ± 1.7 µM | >22 | 4.5 ± 6.6 µM |  |  | 1.4 ± 0.3 µM and 1.2 ± 0.2 µM | 1.9 ± 0.1 µM and 2.5 ± 0.5 µM | 0.8 ± 0.6 µM | 0.7 ± 0.2 µM | 0.5 ± 0.1 µM |  | 0.8 to 2.5 µM
NC(=O)c1ncn([C@@H]2O[C@H](CO)[C@@H](O)[C@H]2O)n1 [Ribavirin, 1-beta-D-ribofuranosyl-1,2,4-triazole-3-carboxamide] | inhibited | >7 |  |  |  |  |  |  | > 100 µM |  | > 100 µM |  |  |  |  |  |  |  |  | 
NC(=O)c1csc([C@@H]2O[C@H](CO)[C@@H](O)[C@H]2O)n1 [Tiazofurin] | ineffective |  |  |  |  |  | ineffective |  | > 100 µM |  | > 100 µM |  |  |  |  |  |  |  | ineffective | 
